In paper PMC8213057, “Targeting ALK2: An Open Science Approach to Developing Therapeutics for the Treatment of Diffuse Intrinsic Pontine Glioma” (Journal of Medicinal Chemistry, 2020):

Assays:
EPHA3 = target: T1, EPHA3 (Homo sapiens, UniProt P29320); conditions: 1 μM; Run 1, Run 2
T1 sequence (P29320 21-983): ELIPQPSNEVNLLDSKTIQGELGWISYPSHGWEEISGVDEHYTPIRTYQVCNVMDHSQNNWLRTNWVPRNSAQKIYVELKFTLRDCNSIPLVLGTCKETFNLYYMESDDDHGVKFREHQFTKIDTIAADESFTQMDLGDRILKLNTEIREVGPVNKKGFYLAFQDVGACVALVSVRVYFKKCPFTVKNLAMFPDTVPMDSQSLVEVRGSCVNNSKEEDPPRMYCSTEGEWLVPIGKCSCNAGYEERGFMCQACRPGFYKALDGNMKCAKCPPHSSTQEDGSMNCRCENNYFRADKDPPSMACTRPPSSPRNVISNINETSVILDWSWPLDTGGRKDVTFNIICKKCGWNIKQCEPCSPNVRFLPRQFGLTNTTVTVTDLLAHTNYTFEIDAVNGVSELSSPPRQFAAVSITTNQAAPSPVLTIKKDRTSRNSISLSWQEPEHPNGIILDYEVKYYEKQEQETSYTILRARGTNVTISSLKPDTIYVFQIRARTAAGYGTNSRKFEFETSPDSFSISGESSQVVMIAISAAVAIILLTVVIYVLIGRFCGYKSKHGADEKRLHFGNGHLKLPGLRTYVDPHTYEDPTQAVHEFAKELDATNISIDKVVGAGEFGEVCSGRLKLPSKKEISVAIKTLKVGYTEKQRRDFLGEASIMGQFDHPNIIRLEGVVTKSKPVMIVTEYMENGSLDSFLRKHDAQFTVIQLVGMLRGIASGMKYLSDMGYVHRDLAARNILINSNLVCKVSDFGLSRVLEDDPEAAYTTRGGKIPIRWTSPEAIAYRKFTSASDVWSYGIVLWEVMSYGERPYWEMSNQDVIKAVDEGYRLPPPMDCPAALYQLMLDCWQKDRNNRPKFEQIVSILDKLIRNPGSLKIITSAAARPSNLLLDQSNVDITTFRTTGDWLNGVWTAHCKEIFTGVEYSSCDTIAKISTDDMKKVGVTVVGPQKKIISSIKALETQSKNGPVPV

MARK4 = target: T2, MARK4 (Homo sapiens, UniProt Q96L34); conditions: 1 μM; Run 1, Run 2
T2 sequence (Q96L34 1-752): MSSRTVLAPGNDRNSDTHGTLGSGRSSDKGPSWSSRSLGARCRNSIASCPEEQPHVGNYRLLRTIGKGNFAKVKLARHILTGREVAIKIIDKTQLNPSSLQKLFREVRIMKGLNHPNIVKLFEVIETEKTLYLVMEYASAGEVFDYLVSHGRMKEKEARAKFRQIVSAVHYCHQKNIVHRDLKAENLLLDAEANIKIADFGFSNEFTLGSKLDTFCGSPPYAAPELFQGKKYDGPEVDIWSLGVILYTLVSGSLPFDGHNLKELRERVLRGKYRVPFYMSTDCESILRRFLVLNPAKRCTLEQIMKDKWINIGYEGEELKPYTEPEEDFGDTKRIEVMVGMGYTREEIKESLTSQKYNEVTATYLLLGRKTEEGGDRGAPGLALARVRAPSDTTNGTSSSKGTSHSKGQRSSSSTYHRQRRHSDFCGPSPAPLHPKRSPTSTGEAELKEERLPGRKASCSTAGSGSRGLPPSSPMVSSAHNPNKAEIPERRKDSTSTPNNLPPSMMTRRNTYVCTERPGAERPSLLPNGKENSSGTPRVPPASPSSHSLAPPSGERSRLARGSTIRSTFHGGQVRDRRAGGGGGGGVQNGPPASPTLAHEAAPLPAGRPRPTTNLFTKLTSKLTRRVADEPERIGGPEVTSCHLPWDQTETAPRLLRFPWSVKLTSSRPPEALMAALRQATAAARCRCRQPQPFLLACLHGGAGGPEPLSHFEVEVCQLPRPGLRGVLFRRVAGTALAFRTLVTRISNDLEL

PAK5 = PAK5 (Homo sapiens, UniProt Q9P286); conditions: 1 μM; Run 1, Run 2
PIM1 = PIM1 (Homo sapiens, UniProt P11309); conditions: 1 μM; Run 1, Run 2
MAPKAPK3 = MAPKAPK3 (Homo sapiens, UniProt Q16644); test: biochemical; conditions: read-out: % enzyme activity, 1 μM; Run 1, Run 2
RIPK4 = target: T3, RIPK4 (Homo sapiens, UniProt P57078); test: biochemical; conditions: read-out: % enzyme activity, 1 μM; Run 1, Run 2
T3 sequence (P57078 1-832): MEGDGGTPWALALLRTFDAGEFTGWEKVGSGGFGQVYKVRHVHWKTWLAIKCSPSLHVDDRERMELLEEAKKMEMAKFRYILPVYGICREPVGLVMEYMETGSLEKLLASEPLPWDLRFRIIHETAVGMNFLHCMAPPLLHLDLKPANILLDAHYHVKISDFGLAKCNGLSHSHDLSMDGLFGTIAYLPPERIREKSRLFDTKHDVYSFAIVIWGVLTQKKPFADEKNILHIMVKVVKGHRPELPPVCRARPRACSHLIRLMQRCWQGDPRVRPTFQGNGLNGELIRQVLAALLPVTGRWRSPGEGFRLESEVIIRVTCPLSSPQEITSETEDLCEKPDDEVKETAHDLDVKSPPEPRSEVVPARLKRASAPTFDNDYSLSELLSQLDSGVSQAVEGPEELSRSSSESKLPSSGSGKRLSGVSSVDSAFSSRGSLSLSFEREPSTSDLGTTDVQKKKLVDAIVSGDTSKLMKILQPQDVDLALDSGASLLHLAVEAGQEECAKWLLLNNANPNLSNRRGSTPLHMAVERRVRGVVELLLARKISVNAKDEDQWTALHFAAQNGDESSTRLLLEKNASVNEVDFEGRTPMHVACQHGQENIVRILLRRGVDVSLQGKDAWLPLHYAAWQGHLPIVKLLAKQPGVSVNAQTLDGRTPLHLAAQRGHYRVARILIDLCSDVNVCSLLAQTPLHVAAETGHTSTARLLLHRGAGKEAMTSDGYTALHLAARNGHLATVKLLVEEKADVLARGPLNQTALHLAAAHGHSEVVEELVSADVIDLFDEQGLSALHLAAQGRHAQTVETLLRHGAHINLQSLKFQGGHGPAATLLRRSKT

Chain of PIM1 (P11309 whole entry): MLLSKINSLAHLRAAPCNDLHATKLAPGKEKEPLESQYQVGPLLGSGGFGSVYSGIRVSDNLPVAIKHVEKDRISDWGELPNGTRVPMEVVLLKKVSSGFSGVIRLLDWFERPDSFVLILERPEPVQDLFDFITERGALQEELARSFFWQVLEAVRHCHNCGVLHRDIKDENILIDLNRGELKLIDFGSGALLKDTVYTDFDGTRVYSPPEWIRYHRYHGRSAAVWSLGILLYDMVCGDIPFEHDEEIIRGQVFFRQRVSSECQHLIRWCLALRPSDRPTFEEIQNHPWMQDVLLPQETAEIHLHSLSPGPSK
Chain of MAPKAPK3 (Q16644 whole entry): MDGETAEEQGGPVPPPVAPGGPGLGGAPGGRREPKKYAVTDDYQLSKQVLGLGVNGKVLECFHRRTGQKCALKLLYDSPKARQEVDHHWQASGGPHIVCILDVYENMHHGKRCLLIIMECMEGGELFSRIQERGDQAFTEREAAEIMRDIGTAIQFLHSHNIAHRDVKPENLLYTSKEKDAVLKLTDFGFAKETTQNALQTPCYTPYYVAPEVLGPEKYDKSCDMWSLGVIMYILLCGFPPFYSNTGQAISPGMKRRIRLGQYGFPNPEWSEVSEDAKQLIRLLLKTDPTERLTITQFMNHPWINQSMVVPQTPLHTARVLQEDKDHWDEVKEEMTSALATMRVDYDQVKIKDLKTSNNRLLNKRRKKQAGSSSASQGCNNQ
Chain of PAK5 (Q9P286 whole entry): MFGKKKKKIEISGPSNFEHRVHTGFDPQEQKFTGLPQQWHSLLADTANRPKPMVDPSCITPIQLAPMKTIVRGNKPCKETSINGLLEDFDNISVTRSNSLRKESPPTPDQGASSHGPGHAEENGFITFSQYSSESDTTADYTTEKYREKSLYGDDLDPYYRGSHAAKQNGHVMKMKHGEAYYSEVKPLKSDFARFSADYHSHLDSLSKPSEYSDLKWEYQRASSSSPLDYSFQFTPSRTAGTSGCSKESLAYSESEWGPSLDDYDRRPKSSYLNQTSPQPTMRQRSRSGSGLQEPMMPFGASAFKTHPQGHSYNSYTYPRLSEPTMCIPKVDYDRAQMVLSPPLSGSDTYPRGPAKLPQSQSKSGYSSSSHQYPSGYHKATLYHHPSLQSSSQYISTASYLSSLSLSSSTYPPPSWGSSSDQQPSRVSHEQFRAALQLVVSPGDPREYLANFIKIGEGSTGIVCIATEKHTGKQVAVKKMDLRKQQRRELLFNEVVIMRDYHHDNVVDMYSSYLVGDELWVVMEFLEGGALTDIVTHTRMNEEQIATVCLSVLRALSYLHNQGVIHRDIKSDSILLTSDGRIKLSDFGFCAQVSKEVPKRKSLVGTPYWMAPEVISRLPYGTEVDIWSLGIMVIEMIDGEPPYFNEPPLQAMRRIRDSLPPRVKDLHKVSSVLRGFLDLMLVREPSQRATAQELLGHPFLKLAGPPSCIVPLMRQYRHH

Row | Structure (SMILES) | % enzyme activity (EPHA3) | % enzyme activity (MARK4) | % enzyme activity (PAK5) | % enzyme activity (PIM1) | remaining activity at 1 µM (MAPKAPK3) | remaining activity at 1 µM (RIPK4)
1 | COc1cc(-c2cncc(-c3ccc(N4CCN(C)CC4)cc3)c2C)cc(F)c1C(N)=O [Compound 26a, 2-Fluoro-6-methoxy-4-(4-methyl-5-(4-(4-methylpiperazin-1-yl)phenyl)pyridin-3-yl)benzamide] | 94.70% | 82.62% | 92.74% | 97.92% | 99.5% | 75.5%
2 | COc1cc(-c2cncc(-c3ccc(N4C[C@@H](C)N(C)[C@@H](C)C4)cc3)c2C)cc(F)c1C(N)=O [Compound 26c, 2-Fluoro-6-methoxy-4-(4-methyl-5-(4-((3R,5S)-3,4,5-trimethylpiperazin-1-yl)phenyl)pyridin-3-yl)benzamide] | 98.11% | 95.76% | 94.99% | 92.25% | 97.2% | 86.1%
